This note sets out measurements from patent US20240350667A1, “Method of Enhancing Gene Therapy by Targeting cGAS-STING Pathway” (Spark Therapeutics, Inc., priority 2021, published 2024).

In test [1] the test system is DNA-LNP-induced plasma cytokine/chemokine levels. The experiment in a line: In vivo RO3150 and GSK690693 inhibition of DNA-LNP-induced cytokine release. Also on record: species or system BALB/c mice. The note with it: pre-treatment before DNA-LNP: dexamethasone 200 μg IP, GSK690693 312.5 μg IP (about one hour prior), RO3150 60 μg IV (right before); plasma at 4 hours; FIGS. 3A-3H. The method, then:
BALB/c mice were pre-treated with dexamethasone, GSK690693, or RO3150 before DNA-LNP administration, and plasma cytokine levels were measured at 4 hours post DNA-LNP treatment. The DNA-LNP was made up of (1) DNA plasmid (nanoplasmid expression cassette encoding hFIX); and (2) GenVoy-ILM™ LNP. GenVoy-ILM™ LNP contains ionizable lipid at 50%; DSPC at 10%; cholesterol 37.5%; and stabilizer (PEG-Lipid) at 2.5% (see Roces et al., Pharmaceutics, 2020 12, 1095). Pretreatment was carried out using 200 μg dexamethasone administered intraperitoneally about one hour prior to DNA-LNP administration; using 312.5 μg GSK69063 administered intraperitoneally about one hour prior to DNA-LNP administration; or using 60 μg […] administered intravenously right before DNA-LNP administration.

In test [2] the test system is interferon regulatory factor (IRF) pathway in THP1-Dual cells. The experiment in a line: In vitro H-151 inhibition of DNA-LNP-induced IRF activation (Lucia luciferase in THP1-Dual cell supernatant). In kind it is cell-based. The note with it: 25 ng DNA-LNP/well, 24 hours, FIG. 1. How it is done:
THP1-Dual™ cells (InvivoGen) were seeded in 96-well plates at a density of 45,000 cells/well. After overnight incubation, the cells were treated with 25 ng DNA-LNP/well in the presence of 0, 0.2 or 2.1 ng of small molecule STING inhibitor H-151 (InvivoGen), where the H-151 was provided either a) co-encapsulated with the DNA in the LNPs, or b) provided in a soluble form. After 24 hours incubation, activation of the interferon regulatory factor (IRF) pathway (“fold IRF activity”) was determined by measuring luminescence signal (Lucia luciferase) in the cell culture supernatant. The DNA-LNP was made up of (1) DNA plasmid (nanoplasmid expression cassette encoding human coagulation Factor IX (hFIX)) and (2) Lipid 5 (further described in Sabnis et al. and I.A. infra.), 50%; C14-PEG2000, 1.5%; cholesterol, 38.5%; and DSPC, 10%.

Test [3] has as its system DNA-LNP-induced plasma cytokines. Description: In vivo LNP-encapsulated H-151 inhibition of DNA-LNP-induced cytokine release. The arrangement: species or system BALB/c mice. As to conditions: H-151 encapsulated in 10 μg DNA-LNP, about 1-2 μg/mouse, 4 hours post injection. The method, then: BALB/c mice were injected with 10 μg DNA-LNP or 10 μg DNA-LNP encapsulating H-151. H-151 was provided at a dose of about 1-2 μg/mouse (about 0.04-0.08 mg/kg mouse) Cytokine levels in plasma were measured at 4 hours post injection. FIGS. 2A, 2B, 2C, and 2D illustrate the ability of H-151 encapsulated with the DNA-LNP to inhibit DNA-induced IFN-β (FIG. 2A), IFN-α (FIG. 2B), IFN-γ (FIG. 2C) and IL-6 (FIG. 2D). The DNA-LNP was as described in Example 1, above.

`CCn1c(-c2nonc2N)nc2c(C#CC(C)(C)O)ncc(OC[C@H]3CCCNC3)c21` [GSK690693]: in test [1], the “cytokine/chemokine levels induced by DNA-LNP” value was “reduced most cytokine/chemokine levels except IL-6 and KC/GRO”.

With `CCc1ccc(NC(=O)Nc2c[nH]c3ccccc23)cc1` [H-151], the “effect on LNP-DNA-induced IRF activation (fold IRF activity), compared with soluble H-151” value in test [2] (H-151 co-encapsulated with the DNA in the LNP, 0.2 or 2.1 ng/well) is “more pronounced”. The “effect on LNP-DNA-induced IRF activation (fold IRF activity)” value in test [2] (soluble H-151, 0.2 or 2.1 ng/well) is on record as “had an inhibitory effect”. Also, in test [3] (FIG. 2A), the “DNA-induced IFN-β in plasma” value is listed as “inhibit”. In addition, the “DNA-induced IFN-α in plasma” value in test [3] (FIG. 2B) is “inhibit”. Besides, the “DNA-induced IFN-γ in plasma” value in test [3] (FIG. 2C) is on record as “inhibit”. Further, the “DNA-induced IL-6 in plasma” value in test [3] (FIG. 2D) was “inhibit”.
